Source: patent US7799821B2, “Therapeutic compounds” (Allergan, Inc., priority 2004, dated 2010)
Read-outs that look alike come from different tables or passages of the source.

Assays:
human EP2 receptors = molecular target: T1, human EP2 receptors (Homo sapiens, UniProt P43116); assay: Competition radioligand binding ([3H]PGE2), EP2; details: for Ki: unit inferred, read-out: EP2 data Ki
T1 construct: expressed in transfected cells; host or cells: HEK 293
Procedure: Competition binding experiments were performed in a medium containing Hank's balanced salt solution, […], membranes (˜60 μg protein) or 2×10^5 cells from HEK 293 cells stably expressing human EP2 receptors, [^3H]PGE2 (10 nM) and various concentrations of test compounds in a total volume of 300 μl. Reaction mixtures were incubated at 23° C. for 60 min, and were filtered over Whatman GF/B filters under vacuum. Filters were washed three times with 5 ml ice-cold buffer containing 50 mM Tris/HCl (pH 7.3). Non-specific binding was estimated in the presence of excess unlabeled PGE2 (10 μM). Binding data fitted to the binding model for a single class of binding sites, using nonlinear regression analysis. IC50 values thus obtained were converted to Ki using the equation of Ki=(IC50/(1+[L]/KD) where [L] represents PGE2 concentration (10 nM) and KD the dissociation constant for [^3H]PGE2 at human EP2 receptors (40 nM).
(§1) HEK-293 cells stably expressing the human or feline FP receptor, or EP1, EP2, or EP4 receptors were washed with TME buffer, scraped from the bottom of the flasks, and homogenized for 30 sec using a Brinkman PT 10/35 polytron. TME buffer was added to achieve a final 40 ml volume in the centrifuge tubes (the composition of TME is 100 mM TRIS base, 20 mM MgCl2, […]; 10N HCl is added to achieve a pH of 7.4).
(§2) The cell homogenate was centrifuged at 19000 r.p.m. for 20 min at 4° C. using a Beckman Ti-60 rotor. The resultant pellet was resuspended in TME buffer to give a final 1 mg/ml protein concentration, as determined by Biorad assay. Radioligand binding competition assays vs. [^3H-]17 —phenyl PGF2α (5 nM) were performed in a 100 μl volume for 60 min. Binding reactions were started by adding plasma membrane fraction. The reaction was terminated by the addition of 4 ml ice-cold TRIS-HCl buffer and rapid filtration through glass fiber GF/B filters using a Brandel cell harvester. The filters were washed 3 times with ice-cold buffer and oven dried for one hour.
(§3) [^3H-] PGE2 (specific activity 180 Ci mmol) was used as the radioligand for EP receptors. [^3H] 17-phenyl PGF2α was employed for FP receptor binding studies. Binding studies employing EP1, EP2, EP4 and FP receptors were performed in duplicate in at least three separate experiments. A 200 μl assay volume was used. Incubations were for 60 min at 25° C. and were terminated by the addition of 4 ml of ice-cold 50 mM TRIS-HCl, followed by rapid filtration through Whatman GF/B filters and three additional 4 ml washes in a cell harvester (Brandel). Competition studies were performed using a final concentration of 5 nM [^3H]—PGE2, or 5 nM [^3H] 17-phenyl PGF2α and non-specific binding determined with 10^−5M of unlabeled PGE2, or 17-phenyl PGF2α, according to receptor subtype studied.

EP4 receptors = molecular target: T2, EP4 receptors (Homo sapiens, UniProt P35408); assay: Radioligand binding ([3H]PGE2), EP4; details: unit inferred; read-out: EP4 data KI
T2 construct: expressed in transfected cells; host or cells: HEK-293
T2 sequence (P35408 whole entry): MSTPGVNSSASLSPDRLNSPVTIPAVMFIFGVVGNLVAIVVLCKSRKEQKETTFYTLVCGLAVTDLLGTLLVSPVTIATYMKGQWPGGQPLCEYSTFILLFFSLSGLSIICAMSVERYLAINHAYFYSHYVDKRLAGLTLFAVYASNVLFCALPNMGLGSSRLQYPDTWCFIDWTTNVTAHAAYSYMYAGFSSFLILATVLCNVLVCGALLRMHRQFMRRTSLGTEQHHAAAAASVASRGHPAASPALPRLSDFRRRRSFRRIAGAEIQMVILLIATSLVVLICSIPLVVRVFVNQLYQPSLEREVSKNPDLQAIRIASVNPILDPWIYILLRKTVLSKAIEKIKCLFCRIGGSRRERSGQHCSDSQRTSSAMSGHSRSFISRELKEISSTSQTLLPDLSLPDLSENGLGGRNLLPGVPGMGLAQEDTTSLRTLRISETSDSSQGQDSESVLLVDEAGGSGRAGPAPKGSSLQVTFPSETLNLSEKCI
Procedure: as §1, §2, §3

hEP2/Gqs5 = molecular target: T3, hEP2/Gqs5 (Homo sapiens, UniProt P43116); assay: FLIPR calcium signal, hEP2; assay type: cell-based
T3 construct: expressed in transfected cells; host or cells: HEK-293(EBNA)
T3 sequence (P43116 whole entry): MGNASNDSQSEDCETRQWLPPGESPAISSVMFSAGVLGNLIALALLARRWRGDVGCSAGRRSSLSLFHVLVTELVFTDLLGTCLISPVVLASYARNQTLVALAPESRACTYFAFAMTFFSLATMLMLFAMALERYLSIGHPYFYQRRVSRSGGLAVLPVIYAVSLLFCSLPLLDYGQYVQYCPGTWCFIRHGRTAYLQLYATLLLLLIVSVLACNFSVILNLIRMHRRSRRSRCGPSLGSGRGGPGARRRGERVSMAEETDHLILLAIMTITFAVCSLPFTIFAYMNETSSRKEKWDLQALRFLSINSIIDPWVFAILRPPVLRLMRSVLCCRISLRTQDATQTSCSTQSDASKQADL
Procedure: (§4) HEK-293(EBNA) cells, stably expressing one type or subtype of recombinant human prostaglandin receptors (prostaglandin receptors expressed: hDP/Gqs5; hEP1; hEP2/Gqs5; hEP3A/Gqi5; hEP4/Gqs5; hFP; hIP; hTP), were cultured in 100 mm culture dishes in high-glucose DMEM medium containing 10% fetal bovine serum, 2 mM 1-glutamine, 250 μg/ml geneticin (G418) and 200 μg/ml hygromycin B as selection markers, and 100 units/ml penicillin G, 100 μg/ml streptomycin and 0.25 μg/ml amphotericin B. • (b) Calcium Signal Studies on the FLIPR™
(§5) Cells were seeded at a density of 5×10^4 cells per well in Biocoat® Poly-D-lysine-coated black-wall, clear-bottom 96-well plates (Becton-Dickinson) and allowed to attach overnight in an incubator at 37° C. Cells were then washed two times with HBSS-HEPES buffer (Hanks Balanced Salt Solution without bicarbonate and phenol red, 20 mM HEPES, pH 7.4) using a Denley Cellwash plate washer (Labsystems). After 45 minutes of dye-loading in the dark, using the calcium-sensitive dye Fluo-4 AM at a final concentration of 2 μM, plates were washed four times with HBSS-HEPES buffer to remove excess dye leaving 100 μl in each well. Plates were re-equilibrated to 37° C. for a few minutes.
(§6) Cells were excited with an Argon laser at 488 nm, and emission was measured through a 510-570 nm bandwidth emission filter (FLIPR™, Molecular Devices, Sunnyvale, Calif.). Drug solution was added in a 50 μl volume to each well to give the desired final concentration. The peak increase in fluorescence intensity was recorded for each well. On each plate, four wells each served as negative (HBSS-HEPES buffer) and positive controls (standard agonists: BW245C (hDP); PGE2 (hEP1; hEP2/Gqs5; hEP3A/Gqi5; hEP4/Gqs5); PGF2α (hFP); carbacyclin (hIP); U-46619 (hTP), depending on receptor). The peak fluorescence change in each drug-containing well was then expressed relative to the controls.
(§7) Compounds were tested in a high-throughput (HTS) or concentration-response (CoRe) format. In the HTS format, forty-four compounds per plate were examined in duplicates at a concentration of 10^−5 M. To generate concentration-response curves, four compounds per plate were tested in duplicates in a concentration range between 10^−5 and 10^−11 M. The duplicate values were averaged. In either, HTS or CoRe format each compound was tested on at least 3 separate plates using cells from different passages to give an n≧3.

[1] = molecular target: T4, HEK-EBNA cells expressing a PG EP2 receptor subtype (Homo sapiens, UniProt P43116); assay: cAMP assay, EP2; assay type: cell-based; details: unit inferred; read-out: EP2 data cAMP EC50
T4 construct: expressed in transfected cells; host or cells: HEK-EBNA
T4 sequence (P43116 whole entry): as above
Procedure: A 384-well drug plate was prepared to contain 6 test compounds, PGE2 and cAMP in 16 serial dilutions in triplicate, using a Biomek station. HEK-EBNA cells expressing a target PG receptor subtype (EP2 or EP4) were suspended in a stimulation buffer (HBSS, 0.1% BSA, 0.5 mM IBMX and 5 mM HEPES, pH 7.4) in a density of 10^4 cells/5 μl. The reaction was initiated by mixing 5 μL drug dilutions with 5 μl of HEK-EBNA cells in a well, carried out for 30 min at room temperature, and followed by the addition of 5 μl anti-cAMP acceptor beads in the control buffer with Tween-20 (25 mM NaCl, 0.03% Tween-20, 5 mM HEPES, pH7.4). After 30 min in the dark at room temperature, the mixtures were incubated with 15 μl biotinylated-cAMP/strepavidin donor beads in Lysis/Detection buffer (0.1% BSA, 0.3% Tween-20 and 5 mM HEPES, pH7.4) for 45 min at the room temperature. Fluorescence changes were read using a Fusion-alpha HT microplate reader.

hEP4/Gqs5 = molecular target: T5, hEP4/Gqs5 (Homo sapiens, UniProt P35408); assay: FLIPR calcium signal, hEP4; assay type: cell-based
T5 construct: expressed in transfected cells; host or cells: HEK-293(EBNA)
T5 sequence (P35408 whole entry): as the sequence (P35408 whole entry) above
Procedure: as §4, §5, §6, §7

hEP3A/Gqi5 = molecular target: T6, hEP3A/Gqi5 (Homo sapiens, UniProt P43115); assay: FLIPR calcium signal, hEP3A; assay type: cell-based
T6 construct: expressed in transfected cells; host or cells: HEK-293(EBNA)
T6 sequence (P43115 1-390): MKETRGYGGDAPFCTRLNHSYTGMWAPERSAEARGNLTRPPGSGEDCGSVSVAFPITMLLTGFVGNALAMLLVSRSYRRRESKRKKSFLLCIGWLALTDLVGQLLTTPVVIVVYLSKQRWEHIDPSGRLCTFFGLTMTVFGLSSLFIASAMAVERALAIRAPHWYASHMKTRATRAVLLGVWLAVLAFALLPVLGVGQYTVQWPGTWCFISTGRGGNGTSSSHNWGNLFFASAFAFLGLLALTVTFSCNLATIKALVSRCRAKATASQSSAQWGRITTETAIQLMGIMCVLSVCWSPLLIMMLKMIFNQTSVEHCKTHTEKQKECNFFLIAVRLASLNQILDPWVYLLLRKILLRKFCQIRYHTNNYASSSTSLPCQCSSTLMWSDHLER
Procedure: as §4, §5, §6, §7

[2] = unit inferred, other columns of the table in nM, read-out: EP2 data flipr EC50
[3] = FLIPR Ca2+ signal, HEK-293(EBNA), read-out: FUNCTIONAL EC50 HEP2
[4] = FLIPR Ca2+ signal, HEK-293(EBNA), read-out: FUNCTIONAL EC50 HEP4
[5] = FLIPR Ca2+ signal, HEK-293(EBNA), read-out: FUNCTIONAL EC50 HEP3A
[6] = read-out: Other Receptors EC50 hEP3A
[7] = unit inferred, read-out: EP4 data flipr EC50

T1 sequence (P43116 whole entry): as the sequence (P43116 whole entry) above

## CCCC(O)c1ccc(N2C(=O)CC[C@@H]2COCc2ccc(C(=O)O)s2)cc1 (some centres unmarked)
Human EP2 receptors
  Ki: 1640 nM
EP4 receptors
  Ki: > 10000 nM
hEP2/Gqs5; [2]
  EC50: 426 nM
[1]
  EC50: 27 nM

## CC(C)(C)C(O)c1ccc([C@@H]2[C@@H](CCCCCCC(=O)O)[C@H](Cl)C[C@H]2O)cc1 (some centres unmarked)
Human EP2 receptors; read-out: BINDING IC50 HEP2
  IC50: 3630 nM
hEP2/Gqs5; [3]
  EC50: 1260 nM
hEP4/Gqs5; [4]
  EC50: > 10000 nM

## CCCC1(C(O)c2cccc([C@@H]3[C@@H](CCCCCCC(=O)O)[C@H](Cl)C[C@H]3O)c2)CCC1 (some centres unmarked)
hEP2/Gqs5; [3]
  EC50: 1480 nM
hEP3A/Gqi5; [5]
  EC50: 3120 nM

## CCCCCC(O)c1ccc(N2C(=O)CC[C@@H]2CCCc2ccc(C(=O)O)s2)cc1 (single isomer, unassigned) [drawing 150]
EP4 receptors
  Ki: > 10000 nM
hEP2/Gqs5; [2]
  EC50: 6 nM
hEP3A/Gqi5; [6]
  EC50: 12 nM
hEP4/Gqs5; [7]
  EC50: > 10000 nM

## CCCCCC(O)c1ccc(N2C(=O)CC[C@@H]2COCc2cccc(C(=O)O)c2)cc1 (some centres unmarked)
EP4 receptors
  Ki: > 10000 nM
hEP2/Gqs5; [2]
  EC50: > 10000 nM
[1]
  EC50: 517 nM

## CCCCCC(O)c1ccc(N2C(=O)CC[C@@H]2COc2ccc(C(=O)O)cc2)cc1 (some centres unmarked) [drawing 157]
Human EP2 receptors
  Ki: 22700 nM
EP4 receptors
  Ki: 8750 nM

## CCCCCC(O)c1ccc(N2C(=O)CC[C@@H]2COCc2ccc(C(=O)O)s2)cc1 (single isomer, unassigned) [drawing 149]
Human EP2 receptors
  Ki: 116 nM
EP4 receptors
  Ki: 6030 nM
hEP3A/Gqi5; [6]
  EC50: 1200 nM
hEP4/Gqs5; [7]
  EC50: > 10000 nM
[1]
  EC50: 1.5 nM

## CCCC1(C(O)c2cccc([C@H]3[C@H](O)CC(=O)[C@@H]3C/C=C\CCCC(=O)OC)c2)CCC1 (some centres unmarked)
hEP2/Gqs5; [3]
  EC50: > 10000 nM
hEP3A/Gqi5; [5]
  EC50: > 10000 nM
hEP4/Gqs5; [4]
  EC50: > 10000 nM

## CCCCCCC(O)c1ccc(N2C(=O)CC[C@@H]2COCc2ccc(C(=O)O)s2)cc1 (single isomer, unassigned) [drawing 153]
EP4 receptors
  Ki: 3290 nM
hEP3A/Gqi5; [6]
  EC50: 621 nM
[1]
  EC50: 4 nM

## CCCCCC(O)c1ccc(N2C(=O)CC[C@@H]2COCc2ccc(C(=O)O)o2)cc1 (some centres unmarked)
Human EP2 receptors
  Ki: 2030 nM
EP4 receptors
  Ki: > 10000 nM
hEP2/Gqs5; [2]
  EC50: 388 nM
hEP3A/Gqi5; [6]
  EC50: 1930 nM
[1]
  EC50: 26 nM

## CC(C)C(O)c1ccc(N2C(=O)CC[C@@H]2COCc2ccc(C(=O)O)o2)cc1 (some centres unmarked)
Human EP2 receptors
  Ki: > 10000 nM
EP4 receptors
  Ki: > 10000 nM
hEP2/Gqs5; [2]
  EC50: 7670 nM
[1]
  EC50: 1220 nM
